Assay results as given in article PMC3024946, “Hydroxyproline-containing collagen analogs trigger the release and activation of collagen-sequestered proMMP-2 by competition with prodomain-derived peptide P33-42” (Fibrogenesis & Tissue Repair, 2011).

How the values were obtained:
[1] = test system: ProMMP-9; assay: Solid-phase binding of [125I]-proMMP-9 to immobilized collagens/peptides (microwells); design: species or system human; conditions: ProMMP-9, 2 ng/well; coated wells; 4°C, 2 h; residual radioactivity; mean ± SD, at least five experiments in triplicate
Method: (§1) Human recombinant proMMPs and in vitro activated MMPs were obtained from Invitek and were labeled with the [^125I]-Bolton-Hunter reagent according to the manufacturer's instructions (PerkinElmer, Rodgau, Germany) before the buffer was exchanged for phosphate-buffered saline (PBS) with 0.05% (vol/vol) Tween 20 by gel filtration as described previously. Specific radioactivity for [^125I]-MMPs was 3-9 × 10^4 cpm/ng. Precipitation with 10% (wt/vol) trichloroacetic acid and 200 μg of BSA recovered 96% to 100% of protein-bound radioactivity. Aliquots of labeled MMPs were frozen and stored at -80°C. The activity and integrity were checked by substrate gel zymography using SDS-PAGE and autoradiography with overnight exposure to Biomax MS film (Kodak, Stuttgart, Germany) (Figure 2A).
(§2) Native human CI, CIII and CVI were purified from skin tissue and placenta. The CI single chains α1(I) and α2(I) were obtained and modified as described previously. To prepare defined fragments, 2 mg of α1(I) were dissolved in 1 ml of 70% (vol/vol) formic acid at room temperature, the tubes were flushed with nitrogen for 10 min, and then 2 mg of CB were added. After incubation for 4 h at 37°C, free CB was neutralized and the samples were lyophilized. The peptides CB3, CB6, CB7 and CB8 were separated from the reaction mixture by gel filtration followed by ion-exchange chromatography. The resulting peptides were characterized by amino acid analysis and SDS-PAGE [45, 46]. The CB peptides had the following melting temperatures: CB3, 23.9°C; CB6, 26.7°C; CB7, 28.1°C; and CB8, 28.0°C [31].
(§3) The following collagen analogs and control peptides were synthesized as described previously: (GPO)10, H-Gly-Cys-Hyp-(Gly-Pro-Hyp)10-Gly-Cys-Hyp-Gly-NH2; (GPP)10, H-Gly-Cys-Pro-(Gly-Pro-Pro)10-Gly-Cys-Pro-Gly-NH2; and GAP, H-Gly-Ala-Cys-(Gly-Ala-Pro)5-Gly-Phe-Hyp-Gly-Glu-Arg-(Gly-Ala-Pro)5-NH2. Peptides (POG)10, (PPG)10 and (POG)5 were purchased from Peptide International (Louisville, KY, USA). Spontaneous triple-helix assembly was approved by polarimetry over a 10-cm path length at 1°C/min in 10 mM phosphate buffer, pH 7.4. At 5 mg/ml, midpoints of melting curves occurred at 82.3 ± 1.4°C for (GPO)10 and at 45.8 ± 0.8°C for (GPP)10. […] Graphs were calculated from the primary data using a custom fitting program written by D.A. Slatter (Department of Biochemistry, University of Cambridge, Cambridge, UK [48]) to model different possible transitions. All collagens, CI derivatives and peptides were stored in stock solutions of 2 mg/ml in 150 mM acetic acid at -20°C.
(§4) ProMMP-2 and proMMP-9 or actMMP-2 and actMMP-9 were bound to nitrocellulose and polystyrene-immobilized native collagens, CI chains, CB peptides or structural analogs. Serial dilutions of collagens or CI derivatives in 150 mM acetic acid were dotted at 3 × 3 μl to a nitrocellulose membrane with high protein-binding capacity (GE Healthcare, Munich, Germany). Air-dried membranes were blocked with PBS and 0.3% (vol/vol) Tween 20 overnight at 4°C, washed three times, and incubated with 1 ng/ml [^125I]-pro- and actMMP-2 and pro- and actMMP-9 in PBS and 0.3% (vol/vol) Tween 20 for 2 h at room temperature. Membranes were washed again and air-dried, and bound MMP was monitored by autoradiography. In parallel, polystyrene microtiter plates (Dynex, Chantilly, VA, USA) were coated with collagen proteins and peptides. Here 2 μg/well or 200 ng/well proteins and peptides or BSA as control were immobilized in 100 μl of 50 mM ammonium bicarbonate buffer, pH 9.6, by overnight incubation at 4°C. Immobilization efficacies were 20% to 45% of total proteins. Wells were washed three times with PBS, and nonspecific binding sites were blocked with PBS and 0.05% (vol/vol) Tween 20 for 1 h at room temperature. All incubation steps were performed with 2 ng of [^125I]-MMPs at 4°C for 2 h. […]

[2] = test system: ProMMP-2; assay: Solid-phase binding of [125I]-proMMP-2 to immobilized collagens/peptides (microwells); design: species or system human; conditions: for Binding of [125I]-MMPs: ProMMP-2, 2 ng/well, coated wells, 4°C, 2 h, residual radioactivity, mean ± SD, at least five experiments in triplicate
Method: as §1, §2, §3, §4

[3] = test system: ActMMP-2; assay: Solid-phase binding of [125I]-actMMP-2 to immobilized collagens/peptides (microwells); design: species or system human; conditions: for Binding of [125I]-MMPs: ActMMP-2, 2 ng/well, coated wells, 4°C, 2 h, residual radioactivity, mean ± SD, at least five experiments in triplicate
Method: as §1, §2, §3, §4

[4] = test system: ActMMP-9; assay: Solid-phase binding of [125I]-actMMP-9 to immobilized collagens/peptides (microwells); design: species or system human; conditions: ActMMP-9, 2 ng/well; coated wells; 4°C, 2 h; residual radioactivity; mean ± SD, at least five experiments in triplicate
Method: as §1, §2, §3, §4

[5] = test system: gelatinase activity in rat cirrhotic liver; assay: In situ zymography of cirrhotic liver, negative controls; format: biochemical; conditions: 10 mM ethylenediaminetetraacetic acid or 1 mM phenanthroline; DQ-gelatine
Method: As described earlier, in situ zymography was performed with cryostat sections (6 μm) of rat cirrhotic liver. In brief, sections were dried, overlayed with 100 μg/ml DQ-gelatine (λex/em, 495/515 nm; Molecular Probes, Eugene, OR, USA) and 0.5% (wt/vol) low-melt agarose in MMP activity buffer. […] Samples were inserted into coverslips and incubated at 40°C for 1 h before being transferred to room temperature for an additional 2 to 16 h. Hoechst 33342 (Invitrogen, Carlsbad, California, USA) nuclear dye was used for counterstaining. Images were obtained by fluorescence microscopy using a Nikon E800 photodocumentation microscope (Nikon Imaging, Düsseldorf, Germany).

[6] = Triple-helix melting temperature; format: physicochemical; conditions: at 5°C; polarimetry
Method: as §2, §3

[7] = test system: MMPs / CI; assay: SPR, effect of control peptide on interaction of the MMPs with CI; format: binding, human; conditions: linear control peptide, not shown
Method: Sensor chip preparations and SPR measurements were performed using a BiacoreX device and the Bia-evaluation software (version 3.2; Biacore, Uppsala, Sweden). The pepsin-resistant triple-helical part of human fibrillar CI (100 μg/ml) in 10 mM acetate coupling buffer, pH 4.8, was immobilized to a dextran matrix-sensor chip at a flow rate of 5 μl/min, resulting in 5,500 resonance units from CI covalently linked via its primary amino groups. The control flow cell was prepared using the coupling buffer without CI. Surfaces were activated and blocked as described previously. […] The effects of (GPO)10, GAP, (POG)5, (GPP)10 and P33-42 on MMP-2 and MMP-9 binding to CI and their enzymatic activity were determined by adding the binding competitors to the (pro- and act)MMP-2 and MMP-9 solution in 10- to 150-fold molar excesses. Effects independent of MMP-2 and MMP-9 activity were monitored in the presence of Ro 28-2653 (1 μM) during SPR analysis. […] Kinetic parameters were analyzed using the 1:1 binding model with drifting baseline and subtraction of the control flow cell binding from sensorgrams obtained with immobilized CI. Binding constants (Kd) were calculated from the association (ka) and dissociation rates (kd) obtained from individual binding curves at different concentrations. […]

[8] = target: T1, proMMP-2 / CI (Homo sapiens, UniProt P08253); assay: SPR, competition of proMMP-2 binding to CI, MMP activity buffer with Ro 28-2653; conditions: SPR; MMP activity buffer with Ro 28-2653
T1 construct: prodomain-containing proMMP-2 or proMMP-9; purchased Invitek
T1 sequence (P08253 30-660 limits assumed): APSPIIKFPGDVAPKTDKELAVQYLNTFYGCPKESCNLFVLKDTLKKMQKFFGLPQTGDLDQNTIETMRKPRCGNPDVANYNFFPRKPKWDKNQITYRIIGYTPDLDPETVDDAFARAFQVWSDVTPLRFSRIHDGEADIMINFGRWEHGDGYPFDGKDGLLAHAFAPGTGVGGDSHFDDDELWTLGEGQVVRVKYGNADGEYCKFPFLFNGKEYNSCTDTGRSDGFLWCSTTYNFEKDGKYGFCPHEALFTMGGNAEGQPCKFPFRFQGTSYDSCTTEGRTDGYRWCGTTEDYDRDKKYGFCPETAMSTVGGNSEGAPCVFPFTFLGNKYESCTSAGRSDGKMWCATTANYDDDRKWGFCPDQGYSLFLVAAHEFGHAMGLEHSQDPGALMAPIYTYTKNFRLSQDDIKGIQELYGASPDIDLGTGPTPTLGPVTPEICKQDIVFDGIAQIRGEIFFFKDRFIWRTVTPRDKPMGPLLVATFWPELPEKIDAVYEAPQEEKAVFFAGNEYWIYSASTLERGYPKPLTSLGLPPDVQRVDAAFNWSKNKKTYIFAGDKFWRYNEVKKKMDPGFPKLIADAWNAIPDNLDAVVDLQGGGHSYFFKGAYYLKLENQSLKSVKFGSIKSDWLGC
Method: Sensor chip preparations and SPR measurements were performed using a BiacoreX device and the Bia-evaluation software (version 3.2; Biacore, Uppsala, Sweden). The pepsin-resistant triple-helical part of human fibrillar CI (100 μg/ml) in 10 mM acetate coupling buffer, pH 4.8, was immobilized to a dextran matrix-sensor chip at a flow rate of 5 μl/min, resulting in 5,500 resonance units from CI covalently linked via its primary amino groups. The control flow cell was prepared using the coupling buffer without CI. Surfaces were activated and blocked as described previously. Immediately after thawing, pro- and actMMP-2 and pro- and actMMP-9 were diluted to 100 to 250 nM in MMP activity buffer or in PBS and 0.05% (vol/vol) Tween 20. For SPR measurements, flow rates were 10 μl/min at 25°C, and equilibrium was typically reached after 30 to 60 s. The effects of (GPO)10, GAP, (POG)5, (GPP)10 and P33-42 on MMP-2 and MMP-9 binding to CI and their enzymatic activity were determined by adding the binding competitors to the (pro- and act)MMP-2 and MMP-9 solution in 10- to 150-fold molar excesses. Effects independent of MMP-2 and MMP-9 activity were monitored in the presence of Ro 28-2653 (1 μM) during SPR analysis. The gelatinase inhibitor Ro 28-2653 was a generous gift from H.-W. Krell (Roche, Grenzach-Wyhlen, Germany). Sensor surfaces were regenerated with 10 mM glycine, pH 2.3, for 1 min between runs, and sensor chips were used up to 25 times. Kinetic parameters were analyzed using the 1:1 binding model with drifting baseline and subtraction of the control flow cell binding from sensorgrams obtained with immobilized CI. Binding constants (Kd) were calculated from the association (ka) and dissociation rates (kd) obtained from individual binding curves at different concentrations. Individual drifts of the resonance signal were fitted locally, and χ^2 values of 0.2% to 1.0% of the maximum resonance value were considered good fits.

Row | Compound | Binding of [125I]-MMPs [1] | Binding of [125I]-MMPs [2] | Binding of [125I]-MMPs [3] | Binding of [125I]-MMPs [4] | gelatinase activity [5] | interaction with control peptides ([2]; pro- and act-forms of MMP-2 and MMP-9, in words) | helicity [6] | effect on interaction of the MMPs with CI [7] | competition with proMMP-2 binding to CI [8] | maximum binding ([3]; actMMP-2, text) [%]
1 | CVI: native human collagen type VI | 12.3 ± 0.8 % of maximum control | 14.1 ± 1.8 % of maximum control | 4.8 ± 0.6 % of maximum control | 2.4 ± 0.1 % of maximum control |  |  |  |  |  | 
2 | c1cnc2c(c1)ccc1cccnc12 [phenanthroline] |  |  |  |  | no generation of bright green fluorescence was observed |  |  |  |  | 
3 | O=C(O)CN(CCN(CC(=O)O)CC(=O)O)CC(=O)O [ethylenediaminetetraacetic acid] |  |  |  |  | no generation of bright green fluorescence was observed |  |  |  |  | 
4 | H-Gly-Ala-Cys-(Gly-Ala-Pro)5-Gly-Phe-Hyp-Gly-Glu-Arg-(Gly-Ala-Pro)5-NH2 [GAP, linear Gly-Ala-Pro (GAP) control peptide] | 1.3 ± 0.2 % of maximum control | 1.7 ± 1.0 % of maximum control | 1.5 ± 0.7 % of maximum control | 0.7 ± 0.2 % of maximum control |  | only marginal interactions | nonhelical even at 5 °C | no effect | less efficient | 
5 | α1(I): α1 chain of collagen type I | 37.6 ± 0.9 % of maximum control | 36.0 ± 4.0 % of maximum control | 19.0 ± 3.0 % of maximum control | 4.7 ± 0.3 % of maximum control |  |  |  |  |  | 19
6 | α2(I): CI single chain α2(I) | 21.8 ± 1.1 % of maximum control | 30.2 ± 2.3 % of maximum control | 10.7 ± 1.8 % of maximum control | 2.6 ± 0.2 % of maximum control |  |  |  |  |  | 
